{"source": "patent US12655175B2", "about": "“C17, C20, and C21 substituted neuroactive steroids and their methods of use” (Sage Therapeutics, LLC, priority 2016, dated 2026)"}
{"target": "GABAA receptor", "test": "Steroid inhibition of [35S]-TBPS binding", "conditions": "rat brain cortical membranes, 3 nM [35S]-TBPS, in the presence of 5 mM GABA", "description": "Steroid Inhibition of TBPS Binding\nBriefly, cortices are rapidly removed following decapitation of carbon dioxide-anesthetized Sprague-Dawley rats ([…]). The cortices are homogenized in 10 volumes of ice-cold 0.32 M sucrose using a glass/teflon homogenizer and centrifuged at 1500×g for 10 min at 4° C. The resultant supernatants are centrifuged at 10,000×g for 20 min at 4° C. to obtain the P2 pellets. The P2 pellets are resuspended in 200 mM NaCl/50 mM Na—K phosphate pH 7.4 buffer and centrifuged at 10,000×g for 10 min at 4° C. This washing procedure is repeated twice and the pellets are resuspended in 10 volumes of buffer. Aliquots ([…]) of the membrane suspensions are incubated with 3 nM [^35S]-TBPS and […] aliquots of test drug dissolved in dimethyl sulfoxide (DMSO) (final 0.5%) in the presence of 5 mM GABA. The incubation is brought to a final volume of 1.0 mL with buffer. […] Following a 90 min incubation at room temp, the assays are terminated by filtration through glass fiber filters (Schleicher and Schuell No. 32) using a cell harvester (Brandel) and rinsed three times with ice-cold buffer. Filter bound radioactivity is measured by liquid scintillation spectrometry. Non-linear curve fitting of the overall data for each drug averaged for each concentration is done using Prism (GraphPad).\nVarious compounds are or can be screened to determine their potential as modulators of [^35S]-TBPS binding in vitro. These assays are or can be performed in accordance with the above discussed procedures.", "units": {"IC50": "nM"}}
{"smiles": "CCOC[C@@]1(O)CC[C@H]2[C@@H](CC[C@@H]3[C@@H]2CC[C@]2(C)[C@@H](C(=O)CNc4ccccc4)CC[C@@H]32)C1", "note": "[Compound 86]", "IC50": "100 to 500"}
{"smiles": "CN(CC(=O)[C@H]1CC[C@H]2[C@@H]3CC[C@H]4C[C@](C)(O)CC[C@@H]4[C@H]3CC[C@]12C)c1ccccc1", "note": "[Compound 63]", "IC50": "100 to 500"}
{"smiles": "COC[C@]12CC[C@@](C)(O)C[C@H]1CC[C@H]1[C@@H]3CC[C@H](C(=O)CNc4ccccc4)[C@@]3(C)CC[C@@H]12", "note": "[Compound 76]", "IC50": "< 10"}
{"smiles": "C[C@@]1(O)CC[C@H]2[C@H](CC[C@@H]3[C@@H]2CC[C@]2(C)[C@@H](C(=O)N4CCCCC4)CC[C@@H]32)C1", "note": "[Compound 5]", "IC50": "50 to 100"}
{"smiles": "CCO[C@H]1C[C@@]2(C)[C@@H](CC[C@H]3[C@@H]4CC[C@H]([N+](=O)[O-])[C@@]4(C)CC(=O)[C@@H]32)C[C@@H]1O", "note": "[Compound 123]", "IC50": "50 to 100"}
{"smiles": "C[C@@]1(O)CC[C@@]2(C)[C@@H](CC[C@@H]3[C@@H]2CC[C@]2(C)[C@@H](N)CC[C@@H]32)C1", "note": "[Compound 93]", "IC50": "> 500"}
{"smiles": "CO[C@H]1C[C@]2(C)[C@@H]([N+](=O)[O-])CC[C@H]2[C@@H]2CC[C@H]3C[C@H](O)[C@@H](OC)C[C@]3(C)[C@H]21", "note": "[Compound 119]", "IC50": "10 to 50"}
{"smiles": "C[C@@]1(O)CC[C@H]2[C@H](CC[C@@H]3[C@@H]2CC[C@]2(C)[C@@H](C(=O)N4CC[C@@H](c5ccccc5)C4)CC[C@@H]32)C1", "note": "[Compound 30]", "IC50": "100 to 500"}
{"smiles": "C[C@@]1(O)CC[C@@]2(C)[C@@H](CC[C@@H]3[C@@H]2CC[C@]2(C)[C@@H](Nc4cccc(F)c4)CC[C@@H]32)C1", "note": "[Compound 90]", "IC50": "100 to 500"}
{"smiles": "C[C@@]1(O)CC[C@H]2[C@H](CC[C@@H]3[C@@H]2CC[C@]2(C)[C@@H](c4cccc(C#N)c4)CC[C@@H]32)C1", "note": "[Compound 105]", "IC50": "10 to 50"}
{"smiles": "C[C@@]1(O)CC[C@H]2[C@H](CC[C@@H]3[C@@H]2CC[C@]2(C)[C@@H](C(=O)N4CC[C@H](c5ccccc5)C4)CC[C@@H]32)C1", "note": "[Compound 31]", "IC50": "50 to 100"}
{"smiles": "COC[C@]12CC[C@](O)(C(F)(F)F)C[C@H]1CC[C@H]1[C@@H]3CC[C@H](C(=O)N(C)Cc4ccccc4)[C@@]3(C)CC[C@@H]12", "note": "[Compound 79]", "IC50": "100 to 500"}
{"smiles": "Cn1cc([C@H]2CC[C@H]3[C@@H]4CC[C@@H]5C[C@](C)(O)CC[C@@H]5[C@H]4CC[C@]23C)cn1", "note": "[Compound 111]", "IC50": "50 to 100"}
{"smiles": "C[C@@]1(O)CC[C@H]2[C@H](CC[C@@H]3[C@@H]2CC[C@]2(C)[C@@H](C(=O)NCCc4ccccc4)CC[C@@H]32)C1", "note": "[Compound 19]", "IC50": "100 to 500"}
{"smiles": "C[C@H](NC(=O)[C@H]1CC[C@H]2[C@@H]3CC[C@@H]4C[C@](C)(O)CC[C@@H]4[C@H]3CC[C@]12C)c1ccccc1", "note": "[Compound 27]", "IC50": "100 to 500"}
{"smiles": "CCOC[C@@]1(O)CC[C@H]2[C@H](CC[C@@H]3[C@@H]2CC[C@]2(C)[C@@H](C(=O)CNc4ccccc4)CC[C@@H]32)C1", "note": "[Compound 84]", "IC50": "10 to 50"}
{"smiles": "CN(C(=O)[C@H]1CC[C@H]2[C@@H]3CC[C@@H]4C[C@](C)(O)CC[C@@H]4[C@H]3CC[C@]12C)c1ccccc1", "note": "[Compound 7]", "IC50": "> 500"}
{"smiles": "C[C@@]1(O)CC[C@H]2[C@H](CC[C@@H]3[C@@H]2CC[C@]2(C)[C@@H](c4cccnc4)CC[C@@H]32)C1", "note": "[Compound 106]", "IC50": "10 to 50"}
{"smiles": "COC[C@]12CC[C@](O)(C(F)(F)F)C[C@H]1CC[C@H]1[C@@H]3CC[C@H](C(=O)Nc4ccccc4)[C@@]3(C)CC[C@@H]12", "note": "[Compound 78]", "IC50": "50 to 100"}
{"smiles": "CCOC[C@]12CC[C@@](C)(O)C[C@@H]1CC[C@H]1[C@@H]3CC[C@H](C(=O)CNc4ccccc4)[C@@]3(C)CC[C@@H]12", "note": "[Compound 66]", "IC50": "50 to 100"}
{"smiles": "CC(=O)N[C@H]1CC[C@H]2[C@@H]3CC[C@H]4C[C@](C)(O)CC[C@]4(C)[C@H]3CC[C@]12C", "note": "[Compound 95]", "IC50": "> 500"}
{"smiles": "CN(C(=O)[C@H]1CC[C@H]2[C@@H]3CC[C@@H]4C[C@](C)(O)CC[C@@H]4[C@H]3CC[C@]12C)C1CCOCC1", "note": "[Compound 10]", "IC50": "100 to 500"}
{"smiles": "C[C@@]1(O)CC[C@@]2(C)[C@@H](CC[C@@H]3[C@@H]2CC[C@]2(C)[C@@H](Nc4ccc(F)cc4)CC[C@@H]32)C1", "note": "[Compound 89]", "IC50": "100 to 500"}
{"smiles": "CCOC[C@@]1(O)CC[C@H]2[C@H](CC[C@@H]3[C@@H]2CC[C@]2(C)[C@@H](C(=O)N[C@H](C)c4ccc(C#N)cc4)CC[C@@H]32)C1", "note": "[Compound 48]", "IC50": "100 to 500"}
{"smiles": "CN(CCc1ccccc1)C(=O)[C@H]1CC[C@H]2[C@@H]3CC[C@@H]4C[C@](C)(O)CC[C@@H]4[C@H]3CC[C@]12C", "note": "[Compound 18]", "IC50": "50 to 100"}
{"smiles": "CCOC[C@@]1(O)CC[C@H]2[C@H](CC[C@@H]3[C@@H]2CC[C@]2(C)[C@@H](C(=O)N4CCCCC4)CC[C@@H]32)C1", "note": "[Compound 50]", "IC50": "100 to 500"}
{"smiles": "CCOC[C@@]1(O)CC[C@H]2[C@H](CC[C@@H]3[C@@H]2CC[C@]2(C)[C@@H](C(=O)N(C)[C@H](C)c4ccc(F)cc4)CC[C@@H]32)C1", "note": "[Compound 61]", "IC50": "100 to 500"}
{"smiles": "C[C@@]1(O)CC[C@H]2[C@H](CC[C@@H]3[C@@H]2CC[C@]2(C)[C@@H](C(=O)N4CCCCCC4)CC[C@@H]32)C1", "note": "[Compound 23]", "IC50": "100 to 500"}
{"smiles": "CO[C@H]1C[C@@]2(C)[C@@H](CC[C@@H]3[C@@H]2CC[C@]2(C)[C@@H]([N+](=O)[O-])CC[C@@H]32)C[C@@H]1O", "note": "[Compound 118]", "IC50": "10 to 50"}
{"smiles": "CCOC[C@@]1(O)CC[C@H]2[C@H](CC[C@@H]3[C@@H]2CC[C@]2(C)[C@@H](C(=O)N4CCc5ccccc5C4)CC[C@@H]32)C1", "note": "[Compound 44]", "IC50": "50 to 100"}
{"smiles": "C[C@@]1(O)CC[C@H]2[C@H](CC[C@@H]3[C@@H]2CC[C@]2(C)[C@@H](C(=O)NCc4cccnc4)CC[C@@H]32)C1", "note": "[Compound 12]", "IC50": "> 500"}
{"smiles": "C[C@@]1(O)CC[C@H]2[C@H](CC[C@@H]3[C@@H]2CC[C@]2(C)[C@@H](c4cncnc4)CC[C@@H]32)C1", "note": "[Compound 104]", "IC50": "50 to 100"}
{"smiles": "CCO[C@H]1C[C@@]2(C)[C@@H](CC[C@@H]3[C@@H]2[C@@H](O)C[C@]2(C)[C@@H]([N+](=O)[O-])CC[C@@H]32)C[C@@H]1O", "note": "[Compound 122]", "IC50": "100 to 500"}
{"smiles": "C[C@@]1(O)CC[C@@]2(C)[C@@H](CC[C@@H]3[C@@H]2CC[C@]2(C)[C@@H](NS(C)(=O)=O)CC[C@@H]32)C1", "note": "[Compound 97]", "IC50": "> 500"}
{"smiles": "CO[C@H]1C[C@@]2(C)[C@@H](CC[C@H]3[C@@H]4CC[C@H]([N+](=O)[O-])[C@@]4(C)CC(=O)[C@@H]32)C[C@@H]1O", "note": "[Compound 121]", "IC50": "100 to 500"}
{"smiles": "C[C@@]1(O)CC[C@H]2[C@@H](CC[C@@H]3[C@@H]2CC[C@]2(C)[C@@H](C(=O)CNc4ccccc4)CC[C@@H]32)C1", "note": "[Compound 64]", "IC50": "50 to 100"}
{"smiles": "C[C@@]1(O)CC[C@H]2[C@H](CC[C@@H]3[C@@H]2CC[C@]2(C)[C@@H](C(=O)NCc4ccncc4)CC[C@@H]32)C1", "note": "[Compound 11]", "IC50": "> 500"}
{"smiles": "C[C@@]1(O)CC[C@H]2[C@H](CC[C@@H]3[C@@H]2CC[C@]2(C)[C@@H](C(=O)NCC4CCOCC4)CC[C@@H]32)C1", "note": "[Compound 24]", "IC50": "> 500"}
{"smiles": "CCOC[C@@]1(O)CC[C@H]2[C@@H](CC[C@@H]3[C@@H]2CC[C@]2(C)[C@@H](C(=O)CN(C)c4ccccc4)CC[C@@H]32)C1", "note": "[Compound 85]", "IC50": "> 500"}
{"smiles": "CCOC[C@@]1(O)CC[C@H]2[C@H](CC[C@@H]3[C@@H]2CC[C@]2(C)[C@@H](C(=O)N4CCC[C@@H]4c4ncco4)CC[C@@H]32)C1", "note": "[Compound 60]", "IC50": "> 500"}
{"smiles": "CO[C@H]1C[C@@]2(C)[C@@H](CC[C@@H]3[C@@H]2[C@@H](O)C[C@]2(C)[C@@H]([N+](=O)[O-])CC[C@@H]32)C[C@@H]1O", "note": "[Compound 120]", "IC50": "100 to 500"}
{"smiles": "C[C@@]1(O)CC[C@@]2(C)[C@@H](CC[C@@H]3[C@@H]2CC[C@]2(C)[C@@H](NC(=O)c4ccccc4)CC[C@@H]32)C1", "note": "[Compound 94]", "IC50": "> 500"}
{"smiles": "CCOC[C@@]1(O)CC[C@H]2[C@H](CC[C@@H]3[C@@H]2CC[C@]2(C)[C@@H](C(=O)N[C@H](CC)c4ccc(F)cc4)CC[C@@H]32)C1", "note": "[Compound 58]", "IC50": "> 500"}
{"smiles": "C[C@@]1(O)CC[C@H]2[C@H](CC[C@@H]3[C@@H]2CC[C@]2(C)[C@@H](C(=O)N4CCCc5ccccc54)CC[C@@H]32)C1", "note": "[Compound 35]", "IC50": "100 to 500"}
{"smiles": "C[C@@]1(O)CC[C@@]2(C)[C@@H](CC[C@@H]3[C@@H]2CC[C@]2(C)[C@@H](Nc4ccccc4F)CC[C@@H]32)C1", "note": "[Compound 91]", "IC50": "> 500"}
